Experimental data taken from patent publication US9138512B2, “Implant with a surface layer having a topographic modification” (Biotronik AG, priority 2010, dated 2015).

Legend:
[1] = system: Human umbilical vein endothelial cells (HUVEC); test: HUVEC alignment to the gratings (contact guidance); format: cell-based; settings: HUVEC on gratings A-10; 50 μM blebbistatin or 10 μM Y27632
Procedure: (§1) For contractility inhibition experiments during endothelial spreading, the cells were treated with DMSO (corresponding v/v), 30 μM ML-7, 10 μM Y27632 or 50 μM blebbistatin. The drugs were dissolved in DMSO (ML-7, blebbistatin) or in distilled water (Y27632) and added to the cells 30 minutes before starting the experiment.
Cell imaging was performed using an inverted Nikon-Ti wide-field microscope (Nikon, Jaw pan) equipped with an Orca R-2 CCD camera (Hamamatsu Photonics, Japan). […] Endothelial spreading on topographic substrates in topographic chips was recorded in parallel time-lapse movies for up to 6 different substrates (a flat control and five different gratings). […]
Collected movies were loaded into ImageJ (National Institutes of Health, USA) and analyzed as follows: In a first step, movies acquired on patterned substrates were filtered by Fast Fourier Transform (FFT). […] The time to onset of spreading on the respective substrates was then measured for each cell detected within all parallel time-lapses acquired. […] A mean time to onset of spreading was calculated for each substrate under analysis by averaging the values measured for all individual cells. HUVEC alignment to the gratings was measured for all cells detected in the last frame of each recorded movie. […]

[2] = system: Human umbilical vein endothelial cells (HUVEC); test: Time to onset of spreading of HUVEC on substrates (time-lapse microscopy); format: cell-based; settings: HUVEC on gratings A-10, 50 μM blebbistatin, 10 μM Y27632 or 30 μM ML-7 added 30 minutes before
Procedure: To generate confluent monolayers cells were seeded on COC substrates at high density (60-70×10^4 cell/cm^2) as reported by Lampugnani et al. and cultured for three days. To measure the time to onset of spreading, cells were detached from a subconfluent cell culture and resuspended in pre-warmed medium without antibiotics. The cells were then counted, diluted to reach a concentration of 5×10^4 cells in 1 ml of medium and then seeded onto the substrates.
as §1
Cell imaging was performed using an inverted Nikon-Ti wide-field microscope (Nikon, Jaw pan) equipped with an Orca R-2 CCD camera (Hamamatsu Photonics, Japan). After cell seeding, the topographic chip was placed under the microscope in an incubated chamber (Life Imaging Services, Switzerland), where temperature and CO2 concentration were maintained at 37° C. and 5%, respectively. Images were collected with a 20×, 0.45 NA long-distance objective (Plan Fluor, Nikon). Endothelial spreading on topographic substrates in topographic chips was recorded in parallel time-lapse movies for up to 6 different substrates (a flat control and five different gratings). Before starting the experiment, five non-overlapping positions were chosen within each substrate and stored in a position list. Immediately after cell seeding, the experiment was started to automatically acquire a differential interference contrast (DIC) image at each saved position with a time resolution of 1 minute for a total of one or two hours. Focal drift during the experiments was eliminated using the microscope's PFS autofocus system. At the end of the experiment, the resulting time-lapses were converted into a single 8 bit movie for each imaging field under analysis.
Collected movies were loaded into ImageJ (National Institutes of Health, USA) and analyzed as follows: In a first step, movies acquired on patterned substrates were filtered by Fast Fourier Transform (FFT). This procedure eliminates the scattering generated by the gratings. The time to onset of spreading on the respective substrates was then measured for each cell detected within all parallel time-lapses acquired. […] A mean time to onset of spreading was calculated for each substrate under analysis by averaging the values measured for all individual cells. HUVEC alignment to the gratings was measured for all cells detected in the last frame of each recorded movie. […]

| Compound | average alignment of inhibitor-treated cells to gratings [1] [°] | effect of inhibitor on time to onset of spreading / spreading [2] | effect of inhibitor on time to onset of spreading / spreading ([2]; listed as ML7) |
| --- | --- | --- | --- |
| Cc1ccc2c(c1)C(=O)C1(O)CCN(c3ccccc3)C1=N2 (stereo not drawn) [Blebbistatin] | 26.5±6.5 | no effect |  |
| O=S(=O)(c1cccc2c(I)cccc12)N1CCCNCC1 [ML-7] |  | No spreading could be measured | completely ablates HUVEC spreading |
| C[C@@H](N)[C@H]1CC[C@H](C(=O)Nc2ccncc2)CC1 [Y27632] | 24.7±6.4 | no effect |  |
